Data on 23 compounds can be found in patent US8951993B2, “Phosphorus containing compounds as protein kinase inhibitors” (Jiangsu Hansoh Pharmaceutical Co., Ltd., priority 2011, dated 2015).

The target in series [1] is ALK (Homo sapiens, UniProt Q9UM73). Nature of the series: ALK enzyme activity assay (HTRF KinEASE). Type of series: biochemical. Set-up: purchased Millipore Company (Billerica, Mass., USA). As to conditions: ATP 25 μM, 30° C. 30 minutes. On the procedure: ALK Enzyme Activity Assay:
ALK kinase was purchased from Millipore Company (Billerica, Mass., USA). HTRF®KinEASET™ was purchased from Cisbio Company (Bedford, Mass., USA). The assay was conducted according to the procedure provided in the assay kit. In brief, incubation was carried out in the kinase buffer containing ALK (0.3 ng/μL), ATP (25 μM), TK substrate-biotin (10 μM), DTT (1 mM), MgCl2 (5 mM), MnCl2 (5 mM) in the presence of the tested articles at various concentrations in 384-well plate at 30° C. for 30 minutes. The reaction was stopped by addition of Sa-XL665 in EDTA solution, and the phosphorylated substrate was detected with a proprietary phospho-specific monoclonal antibody labeled with Eu^3+-Cryptate and a proprietary biotinylated kinase substrate detected using XL665 labeled streptavidin. IC50 value was calculated using median-effect method (Chou 2006).
For orientation: TR-FRET usually uses a lanthanide donor and a delayed reading to cut background.

In series [2] the test system is H2228. Nature of the series: Cell proliferation assay (MTS / BrdU), H2228. As to conditions: Homo sapiens, NCI-H2228; 72 hours, 2% FBS. Type of series: cell-based. On the procedure: (§1) Karpas299 and SU-DHL-1 cells were purchased from Deutsche Sammlung von Mikroorganismen and Zellkulturen (Germany). H2228 was purchased from American Type Culture Collection (USA). All cells were cultured in the recommended medium and serum concentration. Cells were maintained at 37° C. in a humidified atmosphere with 5% CO2. For ALK kinase phosphorylation, cells were seeded in 96-well plates overnight in medium supplemented with 10% fetal bovine serum […]. After 24 hours, the medium was removed and cells were cultured in serum-free medium at 37° C. in the presence of various concentrations of the test articles for 1 hour. After incubation with the tested articles, cells were washed once with HBSS supplemented with 1 mM Na3VO4 and protein lysates were generated. Subsequently, phosphorylation of ALK was assessed by a sandwich ELISA method using an immobilized anti-total-ALK antibody and an anti-phospho-ALK antibody (pY1604) as a detection antibody. IC50 value was calculated using median-effect method. (Chou 2006).
(§2) For cell proliferation assay, cells were seeded in 96-well pates at low density at 37° C. in medium supplemented with 10% FBS and after 24 hours were switched to low serum medium (2% FBS). Cells were further incubated in the presence of the test articles at various concentrations at 37° C. for 72 hours. Two assays were employed to determine the relative cell numbers. One is a 3-(4,5-dimethylthiazol-2-yl)-5-(3-carboxymethoxyphenyl)-2-(4-sulfophenyl)-2H-tetrazolium (MTS) assay using a CellTiter 96® Aqueous Non-Radioactive Cell Proliferation kit (Promega), and the other is a BrdU incorporation assay using a DELFIA® Cell Proliferation Kit (Perkin Elmer). IC50 value was calculated using median-effect method (Chou 2006).

Series [3] relates to SU-DHL-1. Nature of the series: Cell proliferation assay (MTS / BrdU), SU-DHL-1. Type of series: cell-based. The conditions noted are these: Homo sapiens, 72 hours, 2% FBS. As to the method: as §1, §2
The subject of series [4] is Karpas299. In words: Cell proliferation assay (MTS / BrdU), Karpas299. Type of series: cell-based. As to conditions: Homo sapiens, KARPAS-299; 72 hours, 2% FBS. As to the method: as §1, §2
Series [5] in a line: Pharmacokinetic assay, intravenous and oral administration. The class given is in vivo, Sprague-Dawley rats or beagle dogs. As to conditions: plasma. As to the method:
The tested articles were given to Sprague-Dawley rats or beagle dogs by intravenous and oral administration. Plasma samples were prepared from blood samples which were collected at various time points. The plasma concentrations of the tested articles were determined by specific LC-MS/MS analytical methods. Pharmacokinetic parameters were calculated with WinNonlin®.

ALK, sequence (Q9UM73 19-1620): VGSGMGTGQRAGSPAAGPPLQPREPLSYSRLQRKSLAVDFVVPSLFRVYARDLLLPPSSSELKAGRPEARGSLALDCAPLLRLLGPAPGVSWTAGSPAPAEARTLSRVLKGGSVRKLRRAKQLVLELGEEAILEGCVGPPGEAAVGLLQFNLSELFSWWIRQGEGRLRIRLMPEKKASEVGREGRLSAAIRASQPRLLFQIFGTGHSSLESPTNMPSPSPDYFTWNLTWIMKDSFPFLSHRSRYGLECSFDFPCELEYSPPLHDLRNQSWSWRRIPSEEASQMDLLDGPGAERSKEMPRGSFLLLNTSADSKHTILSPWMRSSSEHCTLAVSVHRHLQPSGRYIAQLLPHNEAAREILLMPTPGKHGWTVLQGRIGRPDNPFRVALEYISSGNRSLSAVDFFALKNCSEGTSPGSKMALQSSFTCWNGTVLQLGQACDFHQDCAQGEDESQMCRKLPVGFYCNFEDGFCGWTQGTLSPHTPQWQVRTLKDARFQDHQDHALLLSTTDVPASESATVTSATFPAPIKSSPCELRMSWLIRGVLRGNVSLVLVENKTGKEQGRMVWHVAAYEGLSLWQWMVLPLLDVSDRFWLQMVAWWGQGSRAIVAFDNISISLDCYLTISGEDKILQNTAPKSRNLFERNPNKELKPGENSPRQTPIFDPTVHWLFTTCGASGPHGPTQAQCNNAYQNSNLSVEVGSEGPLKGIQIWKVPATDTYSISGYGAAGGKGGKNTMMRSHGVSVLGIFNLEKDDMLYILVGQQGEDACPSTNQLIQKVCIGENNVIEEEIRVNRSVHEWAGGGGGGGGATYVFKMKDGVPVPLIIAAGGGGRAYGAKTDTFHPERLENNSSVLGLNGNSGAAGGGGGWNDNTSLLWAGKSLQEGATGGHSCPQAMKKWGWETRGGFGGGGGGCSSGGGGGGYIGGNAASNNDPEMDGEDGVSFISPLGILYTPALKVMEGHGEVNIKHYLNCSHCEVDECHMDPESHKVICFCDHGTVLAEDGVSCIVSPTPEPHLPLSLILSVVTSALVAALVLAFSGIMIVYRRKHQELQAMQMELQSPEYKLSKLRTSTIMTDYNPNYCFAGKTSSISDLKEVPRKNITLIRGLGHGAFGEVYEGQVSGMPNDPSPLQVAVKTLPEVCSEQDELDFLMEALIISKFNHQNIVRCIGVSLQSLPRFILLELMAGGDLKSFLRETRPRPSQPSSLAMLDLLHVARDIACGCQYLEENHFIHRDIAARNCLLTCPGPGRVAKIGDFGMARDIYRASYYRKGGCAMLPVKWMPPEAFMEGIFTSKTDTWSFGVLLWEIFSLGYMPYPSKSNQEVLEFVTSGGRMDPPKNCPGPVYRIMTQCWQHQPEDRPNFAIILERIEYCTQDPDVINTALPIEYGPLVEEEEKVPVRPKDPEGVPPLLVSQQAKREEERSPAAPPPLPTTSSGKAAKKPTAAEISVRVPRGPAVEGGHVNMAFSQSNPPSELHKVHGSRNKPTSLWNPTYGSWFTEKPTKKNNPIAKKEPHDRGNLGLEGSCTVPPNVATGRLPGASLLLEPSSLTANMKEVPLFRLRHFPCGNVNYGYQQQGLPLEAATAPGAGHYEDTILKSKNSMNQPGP

For orientation: IC50 means the concentration that gives 50% inhibition. A lower IC50 goes with greater potency. Take `CC(Oc1cc(-c2cnn(CP(C)(C)=O)c2)cnc1N)c1c(Cl)ccc(F)c1Cl` (stereo not drawn) [Example 3, 3-[1-(2,6-dichloro-3-fluoro-phenyl)ethoxy]-5-[1-(dimethylphosphorylmethyl)pyrazol-4-yl]pyridin-2-amine]: in series [1], the IC50 fell in the range of 100 to 500 nM.
`CC(Oc1cc(-c2ccc(CN(CP(C)(C)=O)CP(C)(C)=O)cc2)cnc1N)c1c(Cl)ccc(F)c1Cl` (stereo not drawn) [Example 4, 5-[4-[(bis(dimethylphosphorylmethyl)amino)methyl]phenyl]-3-[1-(2,6-dichloro-3-fluoro-phenyl)ethoxy]pyridin-2-amine]: the figures for the concentration for half-maximal inhibition (IC50) in series [2] and in series [1] were 1000 to 5000 nM and 100 to 500 nM, respectively.
With `CC(Oc1cc(-c2ccc(CNCP(C)(C)=O)cc2)cnc1N)c1c(Cl)ccc(F)c1Cl` (stereo not drawn) [Example 5, 3-[1-(2,6-dichloro-3-fluoro-phenyl)ethoxy]-5-[4-[(dimethylphosphorylmethylamino)methyl]phenyl]pyridin-2-amine], the IC50 in series [2] is 100 to 500 nM; in series [3], 1000 to 5000 nM; in series [1], 100 to 500 nM.
Regarding `CC(Oc1cc(-c2cncc(P(C)(C)=O)c2)cnc1N)c1c(Cl)ccc(F)c1Cl` (stereo not drawn) [Example 6, 3-[1-(2,6-dichloro-3-fluoro-phenyl)ethoxy]-5-(5-dimethylphosphoryl-3-pyridyl)pyridin-2-amine], the half-maximal inhibitory concentration (IC50) in series [2] was in the range of 100 to 500 nM; in series [3], 1000 to 5000 nM; in series [1] it was 100 to 500 nM.
In series [1], `CC(Oc1cc(-c2ccc(COP(C)(C)=O)cc2)cnc1N)c1c(Cl)ccc(F)c1Cl` (stereo not drawn) [Example 7, 3-[1-(2,6-dichloro-3-fluoro-phenyl)ethoxy]-5-[4-(dimethylphosphoryloxymethyl)phenyl]pyridin-2-amine] returned an IC50 of 100 to 500 nM.
Still for that read-out and setting: with `CC(Oc1cc(-c2ccc(P(C)(C)=O)c3ccccc23)cnc1N)c1c(Cl)ccc(F)c1Cl` (stereo not drawn) [Example 9, 3-[1-(2,6-dichloro-3-fluoro-phenyl)ethoxy]-5-(4-dimethylphosphoryl-1-naphthyl)pyridin-2-amine] the figure was 1000 to 5000 nM; with `COc1cc(-c2cnc(N)c(OC(C)c3c(Cl)ccc(F)c3Cl)c2)c(F)cc1P(C)(C)=O` (stereo not drawn) [Example 10, 3-[1-(2,6-dichloro-3-fluoro-phenyl)ethoxy]-5-(4-dimethylphosphoryl-2-fluoro-5-methoxy-phenyl)pyridin-2-amine], 1000 to 5000 nM.
For `CC(Oc1nc(-c2ccc(P(C)(C)=O)cc2)cnc1N)c1c(Cl)ccc(F)c1Cl` (stereo not drawn) [Example 11, 3-[1-(2,6-dichloro-3-fluoro-phenyl)ethoxy]-5-(4-dimethylphosphorylphenyl)pyrazin-2-amine], the half-inhibitory concentration (IC50) in series [3] and in series [1] was 100 to 500 nM each time.
In series [1], `COc1cc(-c2cnc(N)c(OC(C)c3c(Cl)ccc(F)c3Cl)c2)ccc1P(C)(C)=O` (stereo not drawn) [Example 12, 3-[1-(2,6-dichloro-3-fluoro-phenyl)ethoxy]-5-(4-dimethylphosphoryl-3-methoxy-phenyl)pyridin-2-amine] displayed an IC50 of less than 100 nM.
For orientation: half-life means how long it takes for the measured level to halve. Take `CC(Oc1cc(-c2ccc(P(C)(C)=O)cc2F)cnc1N)c1c(Cl)ccc(F)c1Cl` (stereo not drawn) [Example 13, 3-[1-(2,6-dichloro-3-fluoro-phenyl)ethoxy]-5-(4-dimethylphosphoryl-2-fluoro-phenyl)pyridin-2-amine]: the concentration for half-maximal inhibition (IC50) in series [3] is 100 to 500 nM; in series [4], less than 100 nM; in series [1], less than 100 nM. This compound registered a half-life in series [5] (after oral administration in rats or dogs) of more than 3 h. In series [5] (oral administration in rats or dogs, read-out: oral bioavailabilty), the bioavailability is more than 20%.
For `CC(Oc1cc(-c2ccc(P(C)(C)=O)c(F)c2)cnc1N)c1c(Cl)ccc(F)c1Cl` (stereo not drawn) [Example 14, 3-[1-(2,6-dichloro-3-fluoro-phenyl)ethoxy]-5-(4-dimethylphosphoryl-3-fluoro-phenyl)pyridin-2-amine], the IC50 in series [3] and in series [1] was 1000 to 5000 nM in each case.
In turn, `CC(Oc1cc(-c2ccc(P(C)(C)=O)cc2C(F)(F)F)cnc1N)c1c(Cl)ccc(F)c1Cl` (stereo not drawn) [Example 15, 3-[1-(2,6-dichloro-3-fluoro-phenyl)ethoxy]-5-[4-dimethylphosphoryl-2-(trifluoromethyl)phenyl]pyridin-2-amine] yielded a concentration for half-maximal inhibition (IC50) in series [1] of 500 to 1000 nM.
Take `CC(Oc1cc(-c2ccc(P(C)(C)=O)nc2)cnc1N)c1c(Cl)ccc(F)c1Cl` (stereo not drawn) [Example 16, 3-[1-(2,6-dichloro-3-fluoro-phenyl)ethoxy]-5-(6-dimethylphosphoryl-3-pyridyl)pyridin-2-amine]: the IC50 in series [3] was in the range of 1000 to 5000 nM; in series [1], 500 to 1000 nM.
In the case of `CC(Oc1cc(-c2ccc(P(C)(C)=O)cc2O)cnc1N)c1c(Cl)ccc(F)c1Cl` (stereo not drawn) [Example 17, 2-[6-amino-5-[1-(2,6-dichloro-3-fluoro-phenyl)ethoxy]-3-pyridyl]-5-dimethylphosphoryl-phenol], the IC50 was less than 100 nM in series [3] and 100 to 500 nM in series [1].
As for `CC(Oc1cc(-c2ccc(P(C)(C)=O)cn2)cnc1N)c1c(Cl)ccc(F)c1Cl` (stereo not drawn) [Example 18, 3-[1-(2,6-dichloro-3-fluoro-phenyl)ethoxy]-5-(5-dimethylphosphoryl-2-pyridyl)pyridin-2-amine], the IC50 in series [3], in series [4] and in series [1] was 100 to 500 nM throughout.
As to `CC(Oc1cc(-c2ccc(P(C)(C)=O)cc2Cl)cnc1N)c1c(Cl)ccc(F)c1Cl` (stereo not drawn) [Example 19, 5-(2-chloro-4-dimethylphosphoryl-phenyl)-3-[1-(2,6-dichloro-3-fluoro-phenyl)ethoxy]pyridin-2-amine], the IC50 in series [3] and in series [1] was 100 to 500 nM throughout.
For the compound `CC(Oc1cc(-c2ccc(P(C)(C)=O)cc2OC(F)(F)F)cnc1N)c1c(Cl)ccc(F)c1Cl` (stereo not drawn) [Example 20, 3-[1-(2,6-dichloro-3-fluoro-phenyl)ethoxy]-5-[4-dimethylphosphoryl-2-(trifluoromethoxy)phenyl]pyridin-2-amine], the results for the IC50 in series [3] and in series [1] were 100 to 500 nM and 500 to 1000 nM, respectively.
For `CC(Oc1cc(-c2ccc(P(C)(C)=O)cc2)cnc1N)c1cc(Cl)ccc1Cl` (stereo not drawn) [Example 21, 3-[1-(2,5-dichlorophenyl)ethoxy]-5-(4-dimethylphosphorylphenyl)pyridin-2-amine] the same measures were less than 100 nM and 100 to 500 nM.
The matching figures for `CC(Oc1cc(-c2ccc(P(C)(C)=O)cc2)cnc1N)c1cc(F)ccc1Cl` (stereo not drawn) [Example 22, 3-[1-(2-chloro-5-fluoro-phenyl)ethoxy]-5-(4-dimethylphosphorylphenyl)pyridin-2-amine]: less than 100 nM and 100 to 500 nM.
Compound `CCOP(=O)(OCC)c1ccc(-c2cnc(N)c(OC(C)c3cc(F)ccc3Cl)c2)cc1` (stereo not drawn) [Example 26, 3-[1-2-(2-chloro-5-fluoro-phenyl)ethoxy]-5-(4-diethoxyphosphorylphenyl)pyridine-2-amine] yielded a half-maximal inhibitory concentration (IC50) in series [1] of 500 to 1000 nM.
Take `CC(Oc1cc(-c2ccc(P(=O)(O)O)cc2)cnc1N)c1cc(F)ccc1Cl` (stereo not drawn) [Example 27, [4-(6-amino-5-[1-(2-chloro-5-fluoro-phenyl)ethoxyl]-3-pyridyl]phenyl]phosphonic acid]: the half-maximal inhibitory concentration (IC50) is 1000 to 5000 nM in series [3] and less than 100 nM in series [1].
For `CCOP(=O)(OCC)c1ccc(-c2cnc(N)c(O[C@H](C)c3c(Cl)ccc(F)c3Cl)c2)cc1` [Example 28, 3-[(1R)-1-2-(2,6-dichloro-3-fluoro-phenyl)ethoxy]-5-(4-diethoxyphosphorylphenyl)pyridine-2-amine] the same measures were 1000 to 5000 nM and 100 to 500 nM.
Take `C[C@@H](Oc1cc(-c2ccc(P(=O)(O)O)cc2)cnc1N)c1c(Cl)ccc(F)c1Cl` [Example 29, [4-(6-amino-5-[(1R)-1-(2,6-dichloro-3-fluoro-phenyl)ethoxyl]-3-pyridyl]phenyl]phosphonic acid]: the values for the half-inhibitory concentration (IC50) in series [3] and in series [1] were 1000 to 5000 nM and less than 100 nM, respectively.
